Data from patent publication US20030105595A1, “Chi square tests for gene expression” (priority 2001, published 2003).

Tests used:
Assay in all cases: multi-sample expression analysis, band intensity
Type in all cases: in vivo
Details in all cases: Pooled
band b1i0_51.7 = tested on: band b1i0_51.7
Source text: (§1) To practice the invention, one skilled in the art obtains a source of biological samples, as well as expression information about the biological samples, i.e., expression information relative to one or more genes or polypeptides encoded therein. Data is collected for a particular phenotype appearing within a given population under study, whereby expression of that phenotype is to be determined within the biological sample under study. The phenotype is correlated to a specific genotype, which is then represented as a band with a given intentity, thus indicative of gene expression levels, and is then compared to control samples. Alternatively, the response of a gene to dosage with one or more drugs is determined by band intensity. The standard deviation from the mean (StdDev) is calculated for the control samples, and is fit to functional form in the following equation: […]
(§2) A multi-sample expression analysis was run using the program described in Example 1. For each drug run, only runs for genes producing bands with a p-value<10^−5 in at least 2 of the following 3 comparisons were selected: low dose versus vehicle, high dose versus vehicle and low dose versus high dose. […] Since clusters found using all 13K bands included some of the best 2K bands, it was concluded that no essential signal was lost (see FIGS. 3 and 4). […] A comparison using the same analytic tests on only the best 2K bands. It can be seen that the Chi Square metric provides a better distinction between low and high doses than the correlation metric, which is not able to distinguish between the low dose and the high dose (see FIG. 6). The low-dose/high dose statistical variation is more pronounced when only the best 2K bands are selected.

band b1i0_53.0 = tested on: band b1i0_53.0
Source text: as §1, §2

band b1i0_54.5 = tested on: band b1i0_54.5
Source text: as §1, §2

band b1i0_57.4 = tested on: band b1i0_57.4
Source text: as §1, §2

band b1i0_60.7 = tested on: band b1i0_60.7
Source text: as §1, §2

band b1i0_62.5 = tested on: band b1i0_62.5
Source text: as §1, §2

band b1i0_63.7 = tested on: band b1i0_63.7
Source text: as §1, §2

band b1i0_69.4 = tested on: band b1i0_69.4
Source text: as §1, §2

S=C=Nc1cccc2ccccc12 [ANIT]
band intensity b1i0_51.7 (band b1i0_51.7; High dose, 1d): 23.54 | band intensity b1i0_51.7 (band b1i0_51.7; High dose, 3d): 30.1 | band intensity b1i0_51.7 (band b1i0_51.7; High dose, 7d): 21.57 | band intensity b1i0_51.7 (band b1i0_51.7; Low dose, 1d): 30.7 | band intensity b1i0_51.7 (band b1i0_51.7; Low dose, 3d): 22.37 | band intensity b1i0_51.7 (band b1i0_51.7; Low dose, 7d): 20.67 | band intensity b1i0_51.7 (band b1i0_51.7; Low dose, 14d): 82 | band intensity b1i0_53.0 (band b1i0_53.0; High dose, 1d): 99.5 | band intensity b1i0_53.0 (band b1i0_53.0; High dose, 3d): 84.16 | band intensity b1i0_53.0 (band b1i0_53.0; High dose, 7d): 106.3 | band intensity b1i0_53.0 (band b1i0_53.0; Low dose, 1d): 121.8 | band intensity b1i0_53.0 (band b1i0_53.0; Low dose, 3d): 45.02 | band intensity b1i0_53.0 (band b1i0_53.0; Low dose, 7d): 108.1 | band intensity b1i0_53.0 (band b1i0_53.0; Low dose, 14d): 54.67 | band intensity b1i0_54.5 (band b1i0_54.5; High dose, 1d): 102.2 | band intensity b1i0_54.5 (band b1i0_54.5; High dose, 3d): 114.2 | band intensity b1i0_54.5 (band b1i0_54.5; High dose, 7d): 95.67 | band intensity b1i0_54.5 (band b1i0_54.5; Low dose, 1d): 105.3 | band intensity b1i0_54.5 (band b1i0_54.5; Low dose, 3d): 111.3 | band intensity b1i0_54.5 (band b1i0_54.5; Low dose, 7d): 88.17 | band intensity b1i0_54.5 (band b1i0_54.5; Low dose, 14d): 33.49 | band intensity b1i0_57.4 (band b1i0_57.4; High dose, 1d): 1272 | band intensity b1i0_57.4 (band b1i0_57.4; High dose, 3d): 712.4 | band intensity b1i0_57.4 (band b1i0_57.4; High dose, 7d): 685.8 | band intensity b1i0_57.4 (band b1i0_57.4; Low dose, 1d): 1209.0048 | band intensity b1i0_57.4 (band b1i0_57.4; Low dose, 3d): 1266 | band intensity b1i0_57.4 (band b1i0_57.4; Low dose, 7d): 1303 | band intensity b1i0_57.4 (band b1i0_57.4; Low dose, 14d): 810.7 | band intensity b1i0_60.7 (band b1i0_60.7; High dose, 1d): 74.32 | band intensity b1i0_60.7 (band b1i0_60.7; High dose, 3d): 74.89 | band intensity b1i0_60.7 (band b1i0_60.7; High dose, 7d): 72.63 | band intensity b1i0_60.7 (band b1i0_60.7; Low dose, 1d): 87.08 | band intensity b1i0_60.7 (band b1i0_60.7; Low dose, 3d): 67.38 | band intensity b1i0_60.7 (band b1i0_60.7; Low dose, 7d): 75.42 | band intensity b1i0_60.7 (band b1i0_60.7; Low dose, 14d): 141.7 | band intensity b1i0_62.5 (band b1i0_62.5; High dose, 1d): 49.33 | band intensity b1i0_62.5 (band b1i0_62.5; High dose, 3d): 93.56 | band intensity b1i0_62.5 (band b1i0_62.5; High dose, 7d): 81.4 | band intensity b1i0_62.5 (band b1i0_62.5; Low dose, 1d): 68.44 | band intensity b1i0_62.5 (band b1i0_62.5; Low dose, 3d): 104.9 | band intensity b1i0_62.5 (band b1i0_62.5; Low dose, 7d): 91.61 | band intensity b1i0_62.5 (band b1i0_62.5; Low dose, 14d): 249.3 | band intensity b1i0_63.7 (band b1i0_63.7; High dose, 1d): 50.09 | band intensity b1i0_63.7 (band b1i0_63.7; High dose, 3d): 0.01399 | band intensity b1i0_63.7 (band b1i0_63.7; High dose, 7d): 147.9 | band intensity b1i0_63.7 (band b1i0_63.7; Low dose, 1d): 170.6 | band intensity b1i0_63.7 (band b1i0_63.7; Low dose, 3d): 7.245 | band intensity b1i0_63.7 (band b1i0_63.7; Low dose, 7d): 299.4 | band intensity b1i0_63.7 (band b1i0_63.7; Low dose, 14d): 9.845 | band intensity b1i0_69.4 (band b1i0_69.4; High dose, 1d): 208.6 | band intensity b1i0_69.4 (band b1i0_69.4; High dose, 3d): 284.1 | band intensity b1i0_69.4 (band b1i0_69.4; High dose, 7d): 271.2 | band intensity b1i0_69.4 (band b1i0_69.4; Low dose, 1d): 276.3 | band intensity b1i0_69.4 (band b1i0_69.4; Low dose, 3d): 370.5 | band intensity b1i0_69.4 (band b1i0_69.4; Low dose, 7d): 305.4 | band intensity b1i0_69.4 (band b1i0_69.4; Low dose, 14d): 748.9

Nc1ccc(Cc2ccc(N)cc2)cc1 [Methylenedianiline]
band intensity b1i0_51.7 (band b1i0_51.7; High dose, 1d): 23.55 | band intensity b1i0_51.7 (band b1i0_51.7; High dose, 3d): 27.88 | band intensity b1i0_51.7 (band b1i0_51.7; High dose, 7d): 23.35 | band intensity b1i0_51.7 (band b1i0_51.7; High dose, 14d): 33.18 | band intensity b1i0_51.7 (band b1i0_51.7; Low dose, 1d): 22.28 | band intensity b1i0_51.7 (band b1i0_51.7; Low dose, 3d): 27.01 | band intensity b1i0_51.7 (band b1i0_51.7; Low dose, 7d): 21.37 | band intensity b1i0_51.7 (band b1i0_51.7; Low dose, 14d): 71.33 | band intensity b1i0_53.0 (band b1i0_53.0; High dose, 1d): 101.1 | band intensity b1i0_53.0 (band b1i0_53.0; High dose, 3d): 98.11 | band intensity b1i0_53.0 (band b1i0_53.0; High dose, 7d): 113.8 | band intensity b1i0_53.0 (band b1i0_53.0; High dose, 14d): 60.92 | band intensity b1i0_53.0 (band b1i0_53.0; Low dose, 1d): 103.4 | band intensity b1i0_53.0 (band b1i0_53.0; Low dose, 3d): 101.1 | band intensity b1i0_53.0 (band b1i0_53.0; Low dose, 7d): 111.5 | band intensity b1i0_53.0 (band b1i0_53.0; Low dose, 14d): 55.87 | band intensity b1i0_54.5 (band b1i0_54.5; High dose, 1d): 104.9 | band intensity b1i0_54.5 (band b1i0_54.5; High dose, 3d): 106 | band intensity b1i0_54.5 (band b1i0_54.5; High dose, 7d): 82.18 | band intensity b1i0_54.5 (band b1i0_54.5; High dose, 14d): 51.09 | band intensity b1i0_54.5 (band b1i0_54.5; Low dose, 1d): 123.7 | band intensity b1i0_54.5 (band b1i0_54.5; Low dose, 3d): 111.4 | band intensity b1i0_54.5 (band b1i0_54.5; Low dose, 7d): 86.49 | band intensity b1i0_54.5 (band b1i0_54.5; Low dose, 14d): 62.55 | band intensity b1i0_57.4 (band b1i0_57.4; High dose, 1d): 1230 | band intensity b1i0_57.4 (band b1i0_57.4; High dose, 3d): 1407 | band intensity b1i0_57.4 (band b1i0_57.4; High dose, 7d): 1184 | band intensity b1i0_57.4 (band b1i0_57.4; High dose, 14d): 455.9 | band intensity b1i0_57.4 (band b1i0_57.4; Low dose, 1d): 1376 | band intensity b1i0_57.4 (band b1i0_57.4; Low dose, 3d): 1433 | band intensity b1i0_57.4 (band b1i0_57.4; Low dose, 7d): 1280 | band intensity b1i0_57.4 (band b1i0_57.4; Low dose, 14d): 789.2 | band intensity b1i0_60.7 (band b1i0_60.7; High dose, 1d): 67.13 | band intensity b1i0_60.7 (band b1i0_60.7; High dose, 3d): 85.72 | band intensity b1i0_60.7 (band b1i0_60.7; High dose, 7d): 82.44 | band intensity b1i0_60.7 (band b1i0_60.7; High dose, 14d): 158.3 | band intensity b1i0_60.7 (band b1i0_60.7; Low dose, 1d): 66.66 | band intensity b1i0_60.7 (band b1i0_60.7; Low dose, 3d): 78.99 | band intensity b1i0_60.7 (band b1i0_60.7; Low dose, 7d): 79.32 | band intensity b1i0_60.7 (band b1i0_60.7; Low dose, 14d): 139.6 | band intensity b1i0_62.5 (band b1i0_62.5; High dose, 1d): 59.42 | band intensity b1i0_62.5 (band b1i0_62.5; High dose, 3d): 70.64 | band intensity b1i0_62.5 (band b1i0_62.5; High dose, 7d): 71.55 | band intensity b1i0_62.5 (band b1i0_62.5; High dose, 14d): 185.7 | band intensity b1i0_62.5 (band b1i0_62.5; Low dose, 1d): 63.43 | band intensity b1i0_62.5 (band b1i0_62.5; Low dose, 3d): 69.92 | band intensity b1i0_62.5 (band b1i0_62.5; Low dose, 7d): 86.01 | band intensity b1i0_62.5 (band b1i0_62.5; Low dose, 14d): 207.6 | band intensity b1i0_63.7 (band b1i0_63.7; High dose, 1d): 85.1 | band intensity b1i0_63.7 (band b1i0_63.7; High dose, 3d): 153.8 | band intensity b1i0_63.7 (band b1i0_63.7; High dose, 7d): 144.3 | band intensity b1i0_63.7 (band b1i0_63.7; High dose, 14d): 2.073 | band intensity b1i0_63.7 (band b1i0_63.7; Low dose, 1d): 24.89 | band intensity b1i0_63.7 (band b1i0_63.7; Low dose, 3d): 84.1 | band intensity b1i0_63.7 (band b1i0_63.7; Low dose, 7d): 287.2 | band intensity b1i0_63.7 (band b1i0_63.7; Low dose, 14d): 0.3527 | band intensity b1i0_69.4 (band b1i0_69.4; High dose, 1d): 262.2 | band intensity b1i0_69.4 (band b1i0_69.4; High dose, 3d): 329.9 | band intensity b1i0_69.4 (band b1i0_69.4; High dose, 7d): 290.2061 | band intensity b1i0_69.4 (band b1i0_69.4; High dose, 14d): 512.9 | band intensity b1i0_69.4 (band b1i0_69.4; Low dose, 1d): 349.4 | band intensity b1i0_69.4 (band b1i0_69.4; Low dose, 3d): 349.3 | band intensity b1i0_69.4 (band b1i0_69.4; Low dose, 7d): 303.1 | band intensity b1i0_69.4 (band b1i0_69.4; Low dose, 14d): 714.8
